Experimental findings from PMC9606921, “Phytochemical Investigation and Biological Studies on Selected Searsia Species” (Plants, 2022) are described below.

For orientation: IC50 means the point on the concentration scale where inhibition reaches its midpoint.

Experiment [1] can be described thus: Ferric ion reducing antioxidant power (FRAP) assay. To be noted: means ± SDs; ascorbic acid equivalents; read at 593 nm.
Protocol: The FRAP values were generated by comparing the absorbance changes in the test mixtures with those obtained from increasing concentrations of Fe^3+ and were expressed as µM AAE/g of the samples (Figure 3).
Preparation of the FRAP reagent in a 50 mL conical flask was composed of 30 mL Acetate buffer (300 mM, pH 3.6; 1.627 g Sodium acetate + 16 mL Glacial acetic acid and made up to 1 L with distilled water) + 3 mL TPTZ 10 mM solution (0.0093 g TPTZ and 3 mL of 40 mM HCl in 15 mL flask) + 3 mL FeCl3 solution (0.054 g FeCl3.6H2O and 10 mL distilled water) and 6.6 mL of distilled water. A control solution was prepared by dissolving 0.00352 g of Ascorbic acid in 50 mL, diluted to the mark with distilled water. A standard curve was prepared as per the method described by Benzie and Strain, 1996. L-Ascorbic acid (Sigma Aldrich, Cape Town, South Africa) was used as a standard, with concentrations varying between 0 and 1000 µM. Dilutions were made for the extracts that were highly concentrated, and dilution factors were noted and considered in calculations for the relevant extracts. In a 96-well clear microplate, 10 µL of the stock solutions of the extracts (hexane, dichloromethane, ethyl acetate, methanol, and butanol) of three plants were mixed with a 300 µL FRAP reagent. The plate was read at a wavelength of 593 nm in a multiplate reader. […]
The target of experiment [2] is T1, α-glucosidase (Saccharomyces cerevisiae) (Saccharomyces cerevisiae, UniProt P53341).
T1 construct: purchased Sigma-Aldrich, South Africa
T1 sequence (P53341 whole entry): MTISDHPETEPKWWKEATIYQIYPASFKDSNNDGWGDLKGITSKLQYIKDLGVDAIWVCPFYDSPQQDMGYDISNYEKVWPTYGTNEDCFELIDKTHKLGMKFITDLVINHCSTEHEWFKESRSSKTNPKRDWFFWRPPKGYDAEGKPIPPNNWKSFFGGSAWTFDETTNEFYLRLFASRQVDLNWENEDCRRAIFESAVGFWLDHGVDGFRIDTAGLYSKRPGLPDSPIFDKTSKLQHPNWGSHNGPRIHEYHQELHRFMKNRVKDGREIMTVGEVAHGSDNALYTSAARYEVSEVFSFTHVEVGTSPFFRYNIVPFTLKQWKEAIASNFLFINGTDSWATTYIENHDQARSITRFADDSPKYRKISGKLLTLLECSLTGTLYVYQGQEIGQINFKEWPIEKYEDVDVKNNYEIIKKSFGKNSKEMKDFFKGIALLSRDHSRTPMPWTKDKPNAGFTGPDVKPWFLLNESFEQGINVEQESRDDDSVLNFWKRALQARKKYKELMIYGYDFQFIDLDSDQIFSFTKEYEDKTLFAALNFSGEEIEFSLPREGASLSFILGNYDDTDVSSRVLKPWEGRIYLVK
Briefly: Alpha glucosidase inhibitory activity. It counts as biochemical. To be noted: for IC50: IC50 on alpha glucosidase, concentrations 125.0-1.95 µg/mL, means ± SDs; for activity in screening against alpha glucosidase: isolated compounds tested at 125.0 µg/mL. How it is done: (§1) The extracts of Searsia species were screened to determine their inhibition activities with respect to enzymes relevant to the management of diabetes. The extracts were tested at 2.0 mg/mL.
(§2) The isolated compounds from the three plants were tested against alpha glucosidase and alpha amylase at 125.0 µg/mL to determine their inhibitory activities.
(§3) Standards (purity > 99.0%) for antioxidants, Trolox (6-hydroxyl-2,5,7,8-tetramethylchroman-2-carboxylic acid; Saarchem, Mumbai, India), and other reagents, including ABTS (2,2′-azino-bis (3-ethylbenzo thiazoline-6-sulfonic acid) diammonium salt (Sigma), potassium-peroxodisulphate (Merck), Ethanol (Saarchem), fluorescein sodium salt (Sigma), AAPH (2,2′-azobis (2-methylpropionamidine) dihydrochloride (Aldrich), Sodium dihydrogen orthophosphate dihydrate ([…], Merck), PCA (perchloric acid, Saarchem), TPTZ (2,4,6-tri[2-pyridyl]-s-triazine), iron (III) chloride hexahydrate, and copper sulphate, were purchased from Sigma-Aldrich, Inc. (St. Louis, MO, USA). L-Ascorbic acid was procured from Sigma Aldrich, Cape Town, South Africa. Antioxidant assays, including FRAP and TEAC assays, were performed using a Multiskan spectrum plate reader, while an automated ORAC assay was performed with a Floroskan spectrum plate reader. For the enzyme inhibition studies, α-glucosidase (Saccharomyces cerevisiae), α-amylase ([…]) and 3, 5, di-nitro salicylic acid (DNS), p-nitro-phenyl-α-D-glucopyranoside (p-NPG), sodium carbonate (Na2CO3), soluble starch, sodium dihydrogen phosphate, and disodium hydrogen phosphate were purchased from Sigma-Aldrich, South Africa.
The alpha glucosidase inhibitory activities of the extracts were determined according to the standard method, with minor modifications. In a 96-well plate, a reaction mixture containing 50 μL phosphate buffer (100 mM, pH = 6.8), 10 μL alpha glucosidase (1 U/mL), and 20 μL of extract at 2.0 mg/mL was pre-incubated at 37 °C for 15 min. Then, 20 μL P-NPG (5 mM) was added as a substrate and incubated further at 37 °C for 20 min. The reaction was stopped by adding 50 μL Na2CO3 (0.1 M). The absorbance of the released p-nitrophenol was measured at 405 nm using a Multiplate Reader. The results were reported as half-maximal inhibitory (IC50) concentrations in μM. […] Each extract was tested in triplicate. (1) Inhibitory activity (%)=1 − As/Ac×100 where As is the absorbance in the presence of the test substance and Ac is the absorbance of the control.

In experiment [3] the target is T2, α-amylase (procaine pancreas) (Sus scrofa, UniProt P00690).
T2 construct: purchased Sigma-Aldrich, South Africa; host or cells: pancreas
T2 sequence (P00690 16-511): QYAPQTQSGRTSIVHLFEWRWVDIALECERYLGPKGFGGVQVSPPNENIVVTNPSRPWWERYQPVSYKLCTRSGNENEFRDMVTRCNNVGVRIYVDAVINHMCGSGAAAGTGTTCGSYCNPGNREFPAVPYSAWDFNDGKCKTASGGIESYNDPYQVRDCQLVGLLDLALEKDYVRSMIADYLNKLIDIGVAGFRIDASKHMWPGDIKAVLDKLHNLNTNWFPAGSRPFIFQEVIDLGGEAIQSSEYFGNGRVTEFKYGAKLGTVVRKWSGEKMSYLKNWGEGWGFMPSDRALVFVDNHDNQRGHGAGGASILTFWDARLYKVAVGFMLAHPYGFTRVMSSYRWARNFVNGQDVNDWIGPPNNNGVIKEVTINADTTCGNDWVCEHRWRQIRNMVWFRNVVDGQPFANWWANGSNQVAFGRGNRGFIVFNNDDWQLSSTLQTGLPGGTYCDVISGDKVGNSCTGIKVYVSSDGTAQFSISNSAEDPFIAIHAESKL
The experiment is described as follows: Alpha amylase inhibitory assay. It counts as biochemical. To be noted: for IC50: concentrations 125.0-1.95 µg/mL, means ± SDs; for activity in screening against alpha amylase: isolated compounds tested at 125.0 µg/mL. As for the experimental part:
as §1, §2, §3
The alpha amylase inhibitory assays of the extracts were carried out according to the standard method, with minor modifications. In a 96-well plate, the reaction mixture, containing 50 μL phosphate buffer (100 mM, pH = 6.8), 10 μL alpha amylase (2 U/mL), and 20 μL of plant extracts at 2.0 mg/mL, was preincubated at 37°C for 20 min. Then, 20 μL of 1% soluble starch (100 mM phosphate buffer pH 6.8) was added as a substrate and incubated further at 37 °C for 30 min; 100 μL of the DNS colour reagent was then added and boiled for 10 min. The absorbance of the resulting mixture was measured at 540 nm using a multiplate reader. […] The extracts or isolated compounds were measured in triplicate. The results were reported as half-maximal inhibitory (IC50) concentrations in μM. The results for both alpha amylase and alpha glucosidase were calculated using equation 1.

The nature of experiment [4]: Trolox equivalent antioxidant capacity (ABTS/TEAC) assay. To be noted: means ± SDs; ABTS, 734 nm, 30 min.
Protocol: The antioxidant power of the extracts was examined using the ABTS radical decolorization assay, which measures the relative antioxidant ability to scavenge the radical ABTS^+ (2.2′-azinobis (3-ethylbenzothiazoline-6-sulfonic acid)), a blue-green chromophore with maximum absorption at 734 nm that decreases in its intensity in the presence of antioxidants.
The ABTS mix solution was diluted with ethanol to read a start-up absorbance of approximately 2.0 (±0.1). The test extracts were prepared by dissolving 1 mg of an extract in 1 mL of methanol, allowed to react with 300 µL ABTS solution in the dark at room temperature for 30 min. The absorbance was measured at 734 nm at 25 °C in a multiplate reader. The results were expressed as µM Trolox equivalents per milligram dry weight (µM TE/g) of the test samples.
Experiment [5] in a line: Oxygen radical absorbance capacity (ORAC) assay. The settings on record: means ± SDs; Trolox equivalents per g of plant extract.
Protocol: ORAC was determined according to a previously described method [46], with some modifications [47]. Fluorescein was used as the fluorescent probe. The loss of fluorescence of fluorescein was an indication of the extent of oxidation through reaction with peroxyl or hydroxyl radicals. The protective effect of an antioxidant was measured by assessing the fluorescence area under the curve plot relative to that of a blank in which no antioxidant was present. The ORAC value was calculated by dividing the area under the sample curve by the area under the Trolox curve, with both areas being corrected by subtracting the area under the blank curve.

Molecules are shown by their SMILES. Where “and” joins values, the source holds several entries; their conditions need not be identical. Equal values may be shown once.

As to `O=C1O[C@H]([C@@H](O)CO)C(O)=C1O` [Ascorbic acid, L-Ascorbic acid], the FRAP in experiment [1] is on record as 390.12 ± 09.12 µM AAE/g.

Take `CC1(C)C=C2[C@H]3CC[C@@H]4[C@@]5(C)CCC(=O)C(C)(C)[C@@H]5CC[C@@]4(C)[C@]3(C)CC[C@@]2(C(=O)O)CC1` [Compound C1, moronic acid]: in experiment [2], the IC50 was 23.4 µM and 23.2 µM; the “activity in screening against alpha glucosidase” value is given as “showed activity”. In addition, in experiment [3], the IC50 was 44.2 µM and the “activity in screening against alpha amylase” value is reported as “showed activity”.

With `Cc1c(C)c2c(c(C)c1O)CCC(C)(C(=O)O)O2` (centres unmarked) [Trolox, 6-hydroxyl-2,5,7,8-tetramethylchroman-2-carboxylic acid], in experiment [4], the TEAC amounted to 205.01 ± 05.03 µM TE/g. Moreover, in experiment [5], the ORAC is 14.2 ± 04.01 µM TE/g.

Take `O=c1cc(-c2ccc(O)c(-c3c(O)cc(O)c4c(=O)cc(-c5ccc(O)cc5)oc34)c2)oc2cc(O)cc(O)c12` [Compound C7, amentoflavone]: in experiment [2], the IC50 is 10.3 µM and the “activity in screening against alpha glucosidase” value was “showed activity”. Also, in experiment [3], the IC50 is 36.8 µM and the “activity in screening against alpha amylase” value is listed as “showed activity”.
